Among the test systems are 786-0 renal; ACHN renal; CAKI-1 renal; HOP-62 NSCLC; IGROV1 ovarian; M14 melanoma; SK-MEL-5 melanoma; SW-620 colon; TK-10 renal; UO-31 renal.
Holding throughout (experiment): DTP human tumour cell line panel, 48 h

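Grown in 96-well plates, cells were treated for 48 hours with each compound at five concentrations. Insufficient inhibition: endpoint recorded as highest concentration tested. GI50 marks 50% less growth. TGI marks complete inhibition of growth.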

For seven molecules, GI50 and TGI results are on record in PubChem BioAssay (NCI).

Regarding `O=C(NCCN1CCNCC1)c1ccc(Nc2nc3ccccc3c3occc23)cc1`, the GI50 with 786-0 renal is 8.06 µM; with ACHN renal, 20100 nM; with CAKI-1 renal, 15600 nM; in the test on HOP-62 NSCLC it was 10.3 µM; in the test on IGROV1 ovarian, 1970 nM; in the test on M14 melanoma, 1940 nM. The GI50 with SK-MEL-5 melanoma is 3.39 µM; in the test on SW-620 colon it was 3600 nM; in the test with TK-10 renal, 18.3 µM; in the test with UO-31 renal, 11100 nM. Also, the concentration for total growth inhibition (TGI) with 786-0 renal was 21.6 µM; in the test with ACHN renal, 36 µM; with CAKI-1 renal it was 32.3 µM; with HOP-62 NSCLC, 22.4 µM; with IGROV1 ovarian it was 15.1 µM; with M14 melanoma, 3.98 µM. Also, the concentration for total growth inhibition (TGI) in the test on SK-MEL-5 melanoma is 13.7 µM; in the test on SW-620 colon, 17.4 µM; in the test with TK-10 renal it was 35.2 µM; in the test on UO-31 renal, 27.9 µM.
For `CCCCCCC(C)CCCCCCCCCCC(=O)O` (stereo not given), the TGI in the test with 786-0 renal, in the test on ACHN renal, in the test on CAKI-1 renal, in the test on HOP-62 NSCLC, in the test with IGROV1 ovarian and with M14 melanoma was more than 100 µM each time. For the same molecule, the TGI in the test with SK-MEL-5 melanoma, in the test with SW-620 colon, with TK-10 renal and with UO-31 renal was more than 100 µM each time.
As to `Nc1cc(-c2ccc(Cl)cc2)nn1-c1nnc(/C=C/c2ccco2)c(=O)[nH]1`, the GI50 in the test with 786-0 renal is 5.04 µM; in the test with ACHN renal, 3090 nM; in the test on CAKI-1 renal it was 842 nM; with HOP-62 NSCLC, 6.83 µM; in the test on IGROV1 ovarian, 4890 nM; in the test with M14 melanoma it was 3410 nM. In addition, the GI50 in the test with SK-MEL-5 melanoma was 3.37 µM; in the test on SW-620 colon, 5000 nM; in the test on TK-10 renal it was 5.6 µM; in the test with UO-31 renal, 2410 nM. Besides, the TGI was 23.9 µM in the test with 786-0 renal; 17.7 µM with ACHN renal; 7.04 µM with CAKI-1 renal; 60.1 µM in the test with HOP-62 NSCLC; 37.8 µM in the test with IGROV1 ovarian; 30.6 µM in the test on M14 melanoma. Moreover, the TGI in the test on SK-MEL-5 melanoma was 20.2 µM; with SW-620 colon, more than 100 µM; with TK-10 renal it was 36.1 µM; with UO-31 renal, 22.6 µM.
Regarding `CC1(C)CC(=O)C(CC2C(=O)c3ccccc3C2=O)C(=O)C1`, the TGI in the test with 786-0 renal, with ACHN renal, with CAKI-1 renal, in the test on HOP-62 NSCLC, in the test on IGROV1 ovarian and with M14 melanoma was more than 100 µM each time. Moreover, the TGI in the test with SK-MEL-5 melanoma, in the test with SW-620 colon, in the test on TK-10 renal and in the test on UO-31 renal was more than 100 µM in each case.
In the case of `Cn1c(=O)nc2n(-c3ccc(Cl)c(C(F)(F)F)c3)c3ccccc3nc-2c1=O`, the TGI is more than 100 µM in the test with 786-0 renal; more than 100 µM in the test with ACHN renal; more than 100 µM in the test with CAKI-1 renal; more than 100 µM in the test with HOP-62 NSCLC; more than 100 µM in the test with IGROV1 ovarian; more than 91.3 µM in the test with M14 melanoma. In addition, the TGI in the test on SK-MEL-5 melanoma is 26.9 µM; in the test on SW-620 colon, 62 µM; in the test on TK-10 renal, more than 100 µM; in the test with UO-31 renal, more than 100 µM.
Take `c1ccc(-c2nc(N3CCCNCC3)c3nc(-c4ccccc4)oc3n2)cc1`: the GI50 in the test with 786-0 renal is 1.73 µM; in the test on ACHN renal, 1710 nM; in the test on CAKI-1 renal, 1520 nM; with HOP-62 NSCLC, 1.58 µM; in the test with IGROV1 ovarian, 1590 nM; in the test with M14 melanoma, 1790 nM. The GI50 in the test with SK-MEL-5 melanoma was 1.77 µM; in the test on SW-620 colon, 1760 nM; in the test with TK-10 renal, 1.53 µM; in the test on UO-31 renal, 1350 nM. For the same molecule, the TGI was 3.45 µM in the test with 786-0 renal; 3.11 µM in the test on ACHN renal; 3.02 µM in the test with CAKI-1 renal; 3.23 µM in the test with HOP-62 NSCLC; 3.13 µM in the test with IGROV1 ovarian; 3.4 µM in the test on M14 melanoma. The TGI turned out to be 3.18 µM in the test with SK-MEL-5 melanoma, 3.47 µM with SW-620 colon, 3 µM with TK-10 renal and 2.71 µM in the test with UO-31 renal.
Regarding `O=C1/C(=C/c2ccc([N+](=O)[O-])cc2)COc2ccc(O)cc21`, the GI50 with 786-0 renal was 3.05 µM; in the test on ACHN renal, 2020 nM; in the test with CAKI-1 renal, 3700 nM; with HOP-62 NSCLC, 49.8 µM; in the test with IGROV1 ovarian it was 2000 nM; in the test on M14 melanoma it was 7780 nM. Also, the GI50 was 12.1 µM in the test on SK-MEL-5 melanoma, 1500 nM in the test with SW-620 colon, 26.2 µM in the test on TK-10 renal and 1450 nM in the test on UO-31 renal. In addition, the concentration for total growth inhibition (TGI) was 11.7 µM in the test on 786-0 renal; 4.12 µM in the test on ACHN renal; 19.3 µM in the test with CAKI-1 renal; more than 100 µM in the test on HOP-62 NSCLC; 4.99 µM in the test with IGROV1 ovarian; more than 100 µM in the test with M14 melanoma. The concentration for total growth inhibition (TGI) in the test with SK-MEL-5 melanoma is 53.6 µM; in the test with SW-620 colon, 3.3 µM; in the test with TK-10 renal, more than 100 µM; in the test on UO-31 renal, 3.6 µM.

The term GI50 denotes the concentration that inhibits growth by half. By TGI is commonly meant the concentration at which net growth stops. Lower therefore signals more potent growth arrest.
